Test results from patent publication US20240415918A1, “Polypeptide and its use as a CCK receptor agonist/antagonist” (Centre for Regenerative Medicine & Health, Hong Kong …, priority 2021, published 2024).
Where a SMILES comes first, the peptide text is derived from it. [ ]: non-standard residue; d: D form. The star is where a group is joined. NMeW = CN[C@@H](Cc1c[nH]c2ccccc12)C(=O)O; Phe(3-Br) = N[C@@H](Cc1cccc(Br)c1)C(=O)O; dNMeW = CN[C@H](Cc1c[nH]c2ccccc12)C(=O)O; Fmoc = O=C(OCC1c2ccccc2-c2ccccc21)*; Aad = N[C@@H](CCCC(=O)O)C(=O)O; Nle = CCCC[C@H](N)C(=O)O

Target: T1, CCK-B receptors (CHO-CCK) (Homo sapiens, UniProt P32239)
T1 construct: expressed in transfected cells; host or cells: CHO (CHO-CCK model cells)
T1 sequence (P32239 1-447): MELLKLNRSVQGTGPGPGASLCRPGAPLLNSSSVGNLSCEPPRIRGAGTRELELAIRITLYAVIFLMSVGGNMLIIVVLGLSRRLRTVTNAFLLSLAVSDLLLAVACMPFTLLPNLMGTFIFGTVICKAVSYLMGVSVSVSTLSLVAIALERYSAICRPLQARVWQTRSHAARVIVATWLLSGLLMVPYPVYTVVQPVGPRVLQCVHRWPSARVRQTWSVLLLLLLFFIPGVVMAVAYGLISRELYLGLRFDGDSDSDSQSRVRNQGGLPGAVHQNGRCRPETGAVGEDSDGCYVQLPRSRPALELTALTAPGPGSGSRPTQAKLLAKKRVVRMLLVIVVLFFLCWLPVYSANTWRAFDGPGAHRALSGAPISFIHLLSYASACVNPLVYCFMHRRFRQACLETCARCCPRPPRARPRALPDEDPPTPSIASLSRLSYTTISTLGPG
Assay: Calcium flux (Fluo-8) agonist test on CHO-CCK model cells
Type: cell-based
Settings: CHO-CCK cells, Fluo-8 calcium flux; 100% control = 20 nM CCK8
Method: • To detect changes in intracellular calcium ion concentration after the compound acts on model cells containing CCK-B receptors (CHO-CCK).
• 1. The compound was formulated to a 10 mM mother liquor with DMSO, and then diluted into a series of 9 concentrations with a 3-fold gradient to form a 1000× stock solution.
2.1 Agonist • The compound stock solution was subjected to 200-fold dilution with HHBS buffer to form a 5× working solution.
• 1. Plate CHO-CCK cells in a 96-well plate with media containing 1% FBS, 30,000 cells/well/100 μL, and incubate overnight at 37° C. • 2. Prepare 1×Fluo-8 analysis buffer: mix 9 mL of HHBS, 1 mL of 10× Pluronic F127 Plus and 20 μL of Fluo-8 thoroughly for later use. • 3. Add Fluo-8 dye working solution to the cell plate, 100 μL/well. First incubate in a 37° C. incubator for 30 min, and then take it out and incubate at room temperature in the dark for 30 min. • 4. In the process of incubating cells, the compounds to be detected were prepared with HHBS. • 5.
The agonism/antagonism EC50 of the compound can be obtained by plotting the fitting curve with the agonism/antagonism percentage as Y-axis and the concentration of the compound as X-axis.

| EC50 | Compound |
| --- | --- |
| 1.47 nM | CCCC[C@H](NC(=O)[C@H](Cc1c[nH]c2ccccc12)N(C)C(=O)OCC1c2ccccc2-c2ccccc21)C(=O)N[C@@H](CC(=O)O)C(=O)N[C@@H](Cc1cccc(Br)c1)C(N)=O [HT-199, Fmoc-(N-Me-Trp)-Nle-Asp-Phe(3-Br)-NH2] (Fmoc-[NMeW][Nle]D[Phe(3-Br)]-NH2) |
| 1.3 nM | CCCC[C@H](NC(=O)[C@H](Cc1c[nH]c2ccccc12)N(C)C(=O)OCC1c2ccccc2-c2ccccc21)C(=O)N[C@@H](CC(=O)O)C(=O)N[C@@H](Cc1cccc(Br)c1)C(N)=O [HT-268, Fmoc-(N-Me-Trp)-Nle-Asp-Phe(3-Br)-NH2] (Fmoc-[NMeW][Nle]D[Phe(3-Br)]-NH2) |

Same assay, conditions: compound at 1 nM, CHO-CCK cells

| % Act-Ave @ 1 nM | Compound |
| --- | --- |
| 0.05% | CCCC[C@H](NC(=O)[C@H](Cc1c[nH]c2ccccc12)N(C)C(C)=O)C(=O)N[C@@H](CC(=O)O)C(=O)N[C@@H](Cc1cccc(Br)c1)C(N)=O [HT-269, Ac-(N-Me-Trp)-Nle-Asp-Phe(3-Br)-NH2] (Ac-[NMeW][Nle]D[Phe(3-Br)]-NH2) |
| −0.03% | CCCC[C@H](NC(=O)[C@@H](Cc1c[nH]c2ccccc12)N(C)C(C)=O)C(=O)N[C@@H](CCCC(=O)O)C(=O)N[C@@H](Cc1cccc(Br)c1)C(N)=O [HT-270, Ac-D-Trp-Nle-Aa-Phe(3-Br)-NH2] (Ac-[dNMeW][Nle][Aad][Phe(3-Br)]-NH2) |

Same assay, conditions: compound at 50 nM, CHO-CCK cells

| % Act-Ave @ 50 nM | Compound |
| --- | --- |
| 33.52% | CCCC[C@H](NC(=O)[C@H](Cc1c[nH]c2ccccc12)N(C)C(C)=O)C(=O)N[C@@H](CC(=O)O)C(=O)N[C@@H](Cc1cccc(Br)c1)C(N)=O [HT-269, Ac-(N-Me-Trp)-Nle-Asp-Phe(3-Br)-NH2] (Ac-[NMeW][Nle]D[Phe(3-Br)]-NH2) |
| 80.85% | CCCC[C@H](NC(=O)[C@@H](Cc1c[nH]c2ccccc12)N(C)C(C)=O)C(=O)N[C@@H](CCCC(=O)O)C(=O)N[C@@H](Cc1cccc(Br)c1)C(N)=O [HT-270, Ac-D-Trp-Nle-Aa-Phe(3-Br)-NH2] (Ac-[dNMeW][Nle][Aad][Phe(3-Br)]-NH2) |

Same assay, conditions: compound at 10 μM; percentage of signal of 20 nM CCK8 alone

| Compound | Agonistic Activity (%) at 10 μM |
| --- | --- |
| COC(=O)C[C@H](NC(=O)[C@H](CC[S+](C)[O-])NC(=O)[C@H](N)Cc1c[nH]c2ccccc12)C(=O)N[C@@H](Cc1cc(F)c(F)c(F)c1)C(N)=O (stereo partly drawn) [HT-125, D-Trp-Met(O)-Asp(Ome)-Phe(3,4,5-TriF)-NH2] | −4.16% |
| COC(=O)C[C@H](NC(=O)[C@H](CCS(C)(=O)=O)NC(=O)[C@H](N)Cc1c[nH]c2ccccc12)C(=O)N[C@@H](Cc1ccccc1[N+](=O)[O-])C(N)=O [HT-126, D-Trp-Met(O)-Asp(Ome)-Phe(2-NO2)-NH2] | 9.50% |
| COC(=O)C[C@H](NC(=O)[C@H](CCS(C)(=O)=O)NC(=O)[C@H](N)Cc1c[nH]c2ccccc12)C(=O)N[C@@H](Cc1ccccc1F)C(N)=O [HT-127, D-Trp-Met(O2)-Asp(Ome)-Phe(2-F)-NH2] | 1.79% |
| COC(=O)C[C@H](NC(=O)[C@H](CCS(C)(=O)=O)NC(=O)[C@H](N)Cc1c[nH]c2ccccc12)C(=O)N[C@@H](Cc1cccc(Cl)c1)C(N)=O [HT-128, D-Trp-Met(O2)-Asp(Ome)-Phe(3-Cl)-NH2] | 0.73% |
| COC(=O)C[C@H](NC(=O)[C@H](CCS(C)(=O)=O)NC(=O)[C@H](N)Cc1c[nH]c2ccccc12)C(=O)N[C@@H](Cc1cccc(F)c1)C(N)=O [HT-129, D-Trp-Met(O2)-Asp(Ome)-Phe(3-F)-NH2] | −4.28% |
| COC(=O)C[C@H](NC(=O)[C@H](CCS(C)(=O)=O)NC(=O)[C@H](N)Cc1c[nH]c2ccccc12)C(=O)N[C@@H](Cc1cccc(C)c1)C(N)=O [HT-130, D-Trp-Met(O2)-Asp(Ome)-Phe(3-I)-NH2] | 0.86% |
| C[S+]([O-])CC[C@H](NC(=O)[C@H](N)Cc1c[nH]c2ccccc12)C(=O)N[C@@H](CC(=O)OCCNc1cccc2c(O)cccc12)C(=O)N[C@@H](Cc1ccccc1[N+](=O)[O-])C(N)=O (stereo partly drawn) [HT-143, D-Trp-Met(O)-Asp(EDANS)-Phe(2-NO2)-NH2] | 4.33% |
| C[S+]([O-])CC[C@H](NC(=O)[C@H](N)Cc1c[nH]c2ccccc12)C(=O)N[C@@H](CC(=O)OCCNc1cccc2c(O)cccc12)C(=O)N[C@@H](Cc1cccc(Cl)c1)C(N)=O (stereo partly drawn) [HT-145, D-Trp-Met(O)t-Asp(EDANS)-Phe(3-Cl)-NH2] | −5.52% |
| C[S+]([O-])CC[C@H](NC(=O)[C@H](N)Cc1c[nH]c2ccccc12)C(=O)N[C@@H](CC(=O)OCCNc1cccc2c(O)cccc12)C(=O)N[C@@H](Cc1ccc(N=[N+]=[N-])cc1)C(N)=O (stereo partly drawn) [HT-150, D-Trp-Met(O)-Asp(EDANS)-Phe(4-N3)-NH2] | 0.81% |
| C[S+]([O-])CC[C@H](NC(=O)[C@H](N)Cc1c[nH]c2ccccc12)C(=O)N[C@@H](CC(=O)OCCNc1cccc2c(O)cccc12)C(=O)N[C@@H](Cc1ccc(F)cc1)C(N)=O (stereo partly drawn) [HT-155, D-Trp-Met(O)-Asp(EDANS)-Phe(4-F)-NH2] | 0.50% |
| C[S+]([O-])CC[C@H](NC(=O)[C@H](N)Cc1c[nH]c2ccccc12)C(=O)N[C@@H](CC(=O)OCCNc1cccc2c(O)cccc12)C(=O)N[C@@H](Cc1cc(F)c(F)c(F)c1)C(N)=O (stereo partly drawn) [HT-159, D-Trp-Met(O)-Asp(EDANS)-Phe(3,4,5-TriF)-NH2] | 4.93% |
| CS(=O)(=O)CC[C@H](NC(=O)[C@H](N)Cc1c[nH]c2ccccc12)C(=O)N[C@@H](CC(=O)OCCNc1cccc2c(O)cccc12)C(=O)N[C@@H](Cc1cccc(F)c1)C(N)=O [HT-163, D-Trp-Met(O2)-Asp(EDANS)-Phe(3-F)-NH2] | 2.64% |
| Cc1ccc(C[C@H](NC(=O)[C@H](CC(=O)OCCNc2cccc3c(O)cccc23)NC(=O)[C@H](CCS(C)(=O)=O)NC(=O)[C@H](N)Cc2c[nH]c3ccccc23)C(N)=O)cc1 [HT-166, D-Trp-Met(O2)-Asp(EDANS)-Phe(4-Me)-NH2] | 3.59% |

The next lines start with the values.

| Agonistic Activity (%) at 10 μM | Compound |
| --- | --- |
| 5.87% | COC(=O)C[C@H](NC(=O)[C@H](CCS(C)(=O)=O)NC(=O)[C@H](N)Cc1c[nH]c2ccccc12)C(=O)N[C@@H](Cc1cccc(Br)c1)C(N)=O [HT-131, D-Trp-Met(O2)-Asp(Ome)-Phe(3-Br)-NH2] |
| −14.42% | COC(=O)C[C@H](NC(=O)[C@H](CCS(C)(=O)=O)NC(=O)[C@H](N)Cc1c[nH]c2ccccc12)C(=O)N[C@@H](Cc1ccc(C)cc1)C(N)=O [HT-132, D-Trp-Met(O2)-Asp(Ome)-Phe(4-Me)-NH2] |
| 8.66% | COC(=O)C[C@H](NC(=O)[C@H](CCS(C)(=O)=O)NC(=O)[C@H](N)Cc1c[nH]c2ccccc12)C(=O)N[C@@H](Cc1ccc(N=[N+]=[N-])cc1)C(N)=O [HT-133, D-Trp-Met(O2)-Asp(Ome)-Phe(4-N3)-NH2] |
| 11.25% | COC(=O)C[C@H](NC(=O)[C@H](CCS(C)(=O)=O)NC(=O)[C@H](N)Cc1c[nH]c2ccccc12)C(=O)N[C@@H](Cc1ccc(C#N)cc1)C(N)=O [HT-134, D-Trp-Met(O2)-Asp(Ome)-Phe(4-CN)-NH2] |
| 11.52% | COC(=O)C[C@H](NC(=O)[C@H](CCS(C)(=O)=O)NC(=O)[C@H](N)Cc1c[nH]c2ccccc12)C(=O)N[C@@H](Cc1ccc([N+](=O)[O-])cc1)C(N)=O [HT-135, D-Trp-Met(O2)-Asp(Ome)-Phe(4-NO2)-NH2] |
| 2.69% | COC(=O)C[C@H](NC(=O)[C@H](CCS(C)(=O)=O)NC(=O)[C@H](N)Cc1c[nH]c2ccccc12)C(=O)N[C@@H](Cc1ccc(Br)cc1)C(N)=O [HT-136, D-Trp-Met(O2)-Asp(Ome)-Phe(4-Br)-NH2] |
| 2.10% | COC(=O)C[C@H](NC(=O)[C@H](CCS(C)(=O)=O)NC(=O)[C@H](N)Cc1c[nH]c2ccccc12)C(=O)N[C@@H](Cc1ccc(Cl)cc1)C(N)=O [HT-137, D-Trp-Met(O2)-Asp(Ome)-Phe(4-Cl)-NH2] |
| −3.84% | [2H]c1ccc(C[C@H](NC(=O)[C@H](CC(=O)OC)NC(=O)[C@H](CCS(C)(=O)=O)NC(=O)[C@H](N)Cc2c[nH]c3ccccc23)C(N)=O)cc1 [HT-138, D-Trp-Met(O2)-Asp(Ome)-Phe(4-F)-NH2] |
| 13.02% | COC(=O)C[C@H](NC(=O)[C@H](CCS(C)(=O)=O)NC(=O)[C@H](N)Cc1c[nH]c2ccccc12)C(=O)N[C@@H](Cc1ccc(I)cc1)C(N)=O [HT-139, D-Trp-Met(O2)-Asp(Ome)-Phe(4-I)-NH2] |
| 10.66% | COC(=O)C[C@H](NC(=O)[C@H](CCS(C)(=O)=O)NC(=O)[C@H](N)Cc1c[nH]c2ccccc12)C(=O)N[C@@H](Cc1cc(Cl)cc(Cl)c1)C(N)=O [HT-140, D-Trp-Met(O2)-Asp(Ome)-Phe(3,5-DiCl)-NH2] |
| 5.60% | COC(=O)C[C@H](NC(=O)[C@H](CCS(C)(=O)=O)NC(=O)[C@H](N)Cc1c[nH]c2ccccc12)C(=O)N[C@@H](Cc1cc(F)cc(F)c1)C(N)=O [HT-141, D-Trp-Met(O2)-Asp(Ome)-Phe(3,5-DiF)-NH2] |
| 0.79% | COC(=O)C[C@H](NC(=O)[C@H](CCS(C)(=O)=O)NC(=O)[C@H](N)Cc1c[nH]c2ccccc12)C(=O)N[C@@H](Cc1cc(F)c(F)c(F)c1)C(N)=O [HT-142, D-Trp-Met(O2)-Asp(Ome)-Phe(3,4,5-TriF)-NH2] |
